Laboratory results from ChEMBL document CHEMBL1147920, “Identification of a novel class of succinyl-nitrile-based Cathepsin S inhibitors” (Bioorg Med Chem Lett, 2007).

Molecular target: Cathepsin S (Homo sapiens, UniProt P25774)
Experiment: Inhibition of human cathepsin S

Chain of Cathepsin S (P25774 whole entry): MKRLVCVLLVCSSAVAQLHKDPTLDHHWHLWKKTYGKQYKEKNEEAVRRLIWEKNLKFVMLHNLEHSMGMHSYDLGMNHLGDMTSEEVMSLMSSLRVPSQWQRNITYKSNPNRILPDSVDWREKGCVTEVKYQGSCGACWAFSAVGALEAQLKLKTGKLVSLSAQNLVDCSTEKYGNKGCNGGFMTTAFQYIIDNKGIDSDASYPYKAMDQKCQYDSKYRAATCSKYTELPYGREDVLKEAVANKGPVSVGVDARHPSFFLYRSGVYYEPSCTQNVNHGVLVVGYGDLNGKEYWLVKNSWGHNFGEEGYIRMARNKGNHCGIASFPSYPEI

| IC50 | Kd | SMILES |
| --- | --- | --- |
| 23 nM | 17.8 nM | N#C[C@@]1(NC(=O)[C@@H](CC(=O)N2CCOCC2)CC2CCCCC2)CCN(C2CCCCC2)C1 |
| 41 nM | 13.8 nM | N#C[C@]1(NC(=O)[C@@H](CC(=O)N2CCOCC2)CC2CCCCC2)CCN(CC2CCCCC2)C1 |
| 14 nM | 13.8 nM | CC1CCC(C[C@H](CC(=O)N2CCOCC2)C(=O)N[C@]2(C#N)CCN(C3CCCCC3)C2)CC1 (some centres undefined) |
| 75 nM | – | N#C[C@@]1(NC(=O)[C@@H](CC(=O)N2CCOCC2)CC2CCCCC2)CCN(C2CCCC2)C1 |
| 22 nM | 20 nM | N#C[C@@]1(NC(=O)[C@@H](CC(=O)N2CCOCC2)CC2CCCCC2)CCN(CC2CC2)C1 |
| 155 nM | 161 nM | CN1CC[C@@](C#N)(NC(=O)[C@@H](CC(=O)N2CCOCC2)CC2CCCCC2)C1 |
| 63 nM | 59 nM | N#C[C@@]1(NC(=O)[C@@H](CC(=O)N2CCOCC2)CC2CCCC2)CCN(C2CCCCC2)C1 |
| 47 nM | 77.3 nM | CC1(C[C@H](CC(=O)N2CCOCC2)C(=O)N[C@]2(C#N)CCN(C3CCCCC3)C2)CCCCC1 |
| 23 nM | 11 nM | N#C[C@@]1(NC(=O)[C@@H](CC(=O)N2CCOCC2)CC2CCCCC2)CCN(C2CCCCCC2)C1 |

More lines, now with the values behind:

| SMILES | IC50 | Kd |
| --- | --- | --- |
| N#C[C@@]1(NC(=O)[C@@H](CC(=O)N2CCOCC2)CC2Cc3ccccc3C2)CCN(C2CCCCC2)C1 | 42 nM | 23.1 nM |
| N#C[C@H](COCc1ccc(Cl)cc1)NC(=O)[C@@H](CC(=O)N1CCOCC1)CC1CCCCC1 | 62 nM | 4.86 nM |
| N#C[C@H](CCc1ccccc1)NC(=O)[C@@H](CC(=O)N1CCOCC1)CC1CCCCC1 | 171 nM | 25 nM |
| N#CC1(NC(=O)[C@@H](CC(=O)N2CCOCC2)CC2CCCCC2)CCN(Cc2ccccc2)CC1 | 207 nM | 52 nM |
| CN1CCC(C#N)(NC(=O)[C@@H](CC(=O)N2CCOCC2)CC2CCCCC2)CC1 | 251 nM | 177 nM |
| N#C[C@]1(NC(=O)[C@@H](CC(=O)N2CCOCC2)CC2CCCCC2)CCN(Cc2ccccc2)C1 | 29 nM | 3.64 nM |
| N#C[C@@]1(NC(=O)[C@@H](CC(=O)N2CCOCC2)CC2CCCCC2)CCN(CCc2ccccc2)C1 | 22.3 nM | 15.2 nM |
| N#C[C@@]1(NC(=O)[C@@H](CC(=O)N2CCOCC2)CC2CCc3ccccc3C2)CCN(C2CCCCC2)C1 (some centres undefined) | 1.9 nM | 5.4 nM |
| N#C[C@@]1(NC(=O)[C@@H](CC(=O)N2CCOCC2)CC2CCC(c3ccccc3)CC2)CCN(C2CCCCC2)C1 (some centres undefined) | 3140 nM | – |
| CC(C)CN1CC[C@@](C#N)(NC(=O)[C@@H](CC(=O)N2CCOCC2)CC2CCCCC2)C1 | 39 nM | 53.3 nM |
| N#C[C@H](COCc1ccccc1)NC(=O)[C@@H](CC(=O)N1CCOCC1)CC1CCCCC1 | 37 nM | 4.39 nM |
| N#CC1(NC(=O)[C@@H](CC(=O)N2CCOCC2)CC2CCCCC2)CC1 | 135 nM | 12 nM |
| CC(C)N1CC[C@@](C#N)(NC(=O)[C@@H](CC(=O)N2CCOCC2)CC2CCCCC2)C1 | 66 nM | 60.6 nM |
| N#C[C@@]1(NC(=O)[C@@H](CC(=O)N2CCOCC2)CC2CCCCC2)CCNC1 | 141 nM | 123 nM |
